This note sets out measurements from patent US11751567B2, “Steroidal piperidone derivative, synthesis method, and use thereof” (NORTHWEST A&F UNIVERSITY, priority 2021, dated 2023).

≈ marks a conversion by molar mass, not a printed value. Like-named read-outs stand apart in the source and are kept apart here.

Common to all, as to type: in vivo
The subject of one test is Brevicoryne brassicae. As to the kind of experiment: slide-dip mortality test on aphids (Brevicoryne brassicae). As to conditions: 24 h, read-out: Corrected mortality (%) Brevicoryne brassicae. As to the method:
(§1) Inhibitory activities of the steroidal piperidone derivatives listed in Tables 1 and 2 against Myzus persicae, Aphis citricola, Brevicoryne brassicae, and wheat aphids were determined through slide-dip method. Specific process: A specified amount of a compound to be tested was accurately weighed and dissolved with acetone as a solvent, and solutions with concentrations of 50 μg/mL and 75 μg/mL were each prepared with a 0.1% Tween-80 aqueous solution, allowed to stand at room temperature for 0.5 h until the sample was completely dissolved, and stored for later use. Then, adult aphids were fixed with double-sided tape on slides with a small brush. One end of the slide with the aphids was immersed in the test solutions for 5 seconds. The excess liquid was absorbed with absorbent paper, and the mortality rates were calculated 24 h after treatment. Acetamiprid was adopted as a positive control, and a 0.1% Tween-80 aqueous solution was adopted as a negative control. and the results are shown in Table 1.

A further test concerns Myzus persicae. As to the kind of experiment: slide-dip mortality test on aphids (Myzus persicae). The conditions noted are these: 24 h, read-out: Corrected mortality (%) Myzus persicae. As to the method: as §1
A further test deals with wheat aphids. Nature of the test: slide-dip mortality test on aphids (wheat aphids). The conditions noted are these: 24 h, read-out: Corrected mortality (%) Wheat aphid. As to the method:
as §1

The test system of a further test is Aphis citricola. Nature of the test: slide-dip mortality and LC50 test on aphids (Aphis citricola). The conditions noted are these: for mortality at 50 µg/mL / mortality at 75 µg/mL: 24 h, read-out: Corrected mortality (%) Aphis citricola; for LC50: read-out: LC50 of inhibitory activity against Aphis citricola. As to the method: as §1
For another test, the system named is rice planthoppers. Nature of the test: foliar spray test against rice planthoppers. As to conditions: 72 h, read-out: Corrected mortality (%) rice planthoppers. How it is done: (§2) The toxic activities of the steroidal piperidone derivatives listed in Table 4 against B. tabaci were tested by a foliar spray method. Specific process: A specified amount of a compound to be tested was accurately weighed and dissolved in acetone, and solutions with concentrations of 50 μg/mL and 75 μg/mL were each prepared with a 0.1% of Tween 80 aqueous solution and stored for later use. The pesticide solution was sprayed on the back side of a cucumber leaf, the cucumber leaf was naturally dried, and B. tabaci to be tested were placed on the cucumber leaf. Thiamethoxam was used as a positive control, and acetone was used as a negative control. Several deaths were observed after 7 d of treatment, and the corrected mortality was calculated.
The toxic activities of the steroidal piperidone derivatives listed in Table 5 against rice planthoppers were tested by a foliar spray method. Imidacloprid was used as a positive control, and acetone was used as a negative control. Several deaths were observed after 3 d of treatment, and the corrected mortality was calculated.

In the next test the test system is Bemisia tabaci. Nature of the test: foliar spray test on cucumber leaf against B. tabaci. As to conditions: 168 h, read-out: Corrected mortality (%) B. tabaci. As to the method: as §2
The next test has as its system Tetranychus truncatus. Nature of the test: slide dipping mortality test on mites. As to conditions: read-out: Corrected mortality (%) Tetranychus truncatus. As to the method: as §1
The inhibitory activities of the steroidal piperidone derivatives listed in Table 3 on Tetranychus truncatus were tested through slide dipping.

Setting [1] is: 50 μg/mL, slide dipping, process as for aphids.
Setting [2] is: 75 μg/mL, slide dipping, process as for aphids.

The mortality is the share of the test organisms that died. Broadly, the LC50 is the concentration that kills 50% of the test population.

Turning to `C/C(=N\C#N)N(C)Cc1ccc(Cl)nc1` [Acetamiprid, reference compound], the mortality at 50 µg/mL worked out at 94.4% in the test with Brevicoryne brassicae, 94.3% with Myzus persicae, 95.5% in the test with wheat aphids and 93.3% with Aphis citricola. The mortality at 75 µg/mL in the test with Brevicoryne brassicae, in the test on Myzus persicae, with wheat aphids and with Aphis citricola was 100% each time. The LC50 in the test with Aphis citricola came out at 9.95 mg/L (≈ 44.7 µM).

For `C[C@]12CC[C@H](O)CC1CC[C@@H]1[C@@H]2CC[C@@]2(C)[C@H]1CCC(=O)N2C(=O)c1ccccc1F` (stereo partly drawn) [Compound (1)-1], the mortality at 50 µg/mL amounted to 42.7% with Brevicoryne brassicae; 42.3% in the test on rice planthoppers; 53.4% with Myzus persicae; 50% in the test on wheat aphids; 56.2% with Aphis citricola. The mortality at 75 µg/mL with Brevicoryne brassicae is 65.5%; in the test with rice planthoppers, 56.9%; in the test with Myzus persicae, 75.3%; in the test with wheat aphids it was 70.3%; in the test on Aphis citricola, 78.4%.

`C[C@]12CC[C@H](O)CC1CC[C@@H]1[C@@H]2CC[C@@]2(C)[C@H]1CCC(=O)N2C(=O)c1cccc(F)c1` (stereo partly drawn) [Compound (1)-2]: the mortality at 50 µg/mL came to 30.3% in the test on Brevicoryne brassicae; 52.1% in the test on rice planthoppers; 26.1% in the test on Myzus persicae; 22.1% in the test on wheat aphids; 39.3% with Aphis citricola. Also, the mortality at 75 µg/mL in the test on Brevicoryne brassicae was found to be 54%; in the test on rice planthoppers, 60.3%; with Myzus persicae, 55.1%; in the test with wheat aphids, 50.4%; in the test with Aphis citricola it was 61.4%.

With `C[C@]12CC[C@H](O)CC1CC[C@@H]1[C@@H]2CC[C@@]2(C)[C@H]1CCC(=O)N2C(=O)c1ccc(F)cc1` (stereo partly drawn) [Compound (1)-3], the mortality at 50 µg/mL with Brevicoryne brassicae is 64%; in the test with rice planthoppers, 63.3%; with Bemisia tabaci it was 67.7%; in the test with Tetranychus truncatus (setting [1]), 54.3%; with Myzus persicae, 69.3%; with wheat aphids, 70.5%. Also, the mortality at 50 µg/mL in the test with Aphis citricola was 66.3%. The mortality at 75 µg/mL came to 82.8% in the test with Brevicoryne brassicae; 71.2% in the test with rice planthoppers; 74.7% with Bemisia tabaci; 70.3% with Tetranychus truncatus (setting [2]); 89.9% in the test with Myzus persicae; 90% with wheat aphids. For the same compound, in the test on Aphis citricola, the mortality at 75 µg/mL came out at 85.2%. For the same compound, the 50% lethal concentration (LC50) with Aphis citricola was found to be 24.6 mg/L (≈ 57.5 µM).

`C[C@]12CC[C@H](O)CC1CC[C@@H]1[C@@H]2CC[C@@]2(C)[C@H]1CCC(=O)N2C(=O)c1ccc(Cl)cc1` (stereo partly drawn) [Compound (1)-4]: the mortality at 50 µg/mL in the test with Brevicoryne brassicae is 86.5%; in the test with rice planthoppers, 72%; in the test on Bemisia tabaci, 72.5%; in the test on Tetranychus truncatus (setting [1]), 64.2%; in the test with Myzus persicae it was 84.1%; in the test on wheat aphids it was 91%. For the same compound, the mortality at 50 µg/mL in the test with Aphis citricola amounted to 89.9%. The mortality at 75 µg/mL with Brevicoryne brassicae amounted to 100%; with rice planthoppers it was 80.4%; with Bemisia tabaci it was 87.4%; in the test with Tetranychus truncatus (setting [2]), 88.6%; with Myzus persicae, 100%; with wheat aphids it was 100%. Besides, the mortality at 75 µg/mL in the test with Aphis citricola amounted to 100%. The LC50 in the test with Aphis citricola was determined as 11.9 mg/L (≈ 26.8 µM).

`Cc1ccccc1C(=O)N1C(=O)CC[C@H]2[C@@H]3CCC4C[C@@H](O)CC[C@]4(C)[C@H]3CC[C@@]21C` (stereo partly drawn) [Compound (1)-7]: in the test with rice planthoppers, the mortality at 50 µg/mL came out at 36.2% and the mortality at 75 µg/mL is 45.8%.

Consider `Cc1cccc(C(=O)N2C(=O)CC[C@H]3[C@@H]4CCC5C[C@@H](O)CC[C@]5(C)[C@H]4CC[C@@]32C)c1` (stereo partly drawn) [Compound (1)-8], for which, in the test with rice planthoppers, the mortality at 50 µg/mL worked out at 38.4% and the mortality at 75 µg/mL stood at 53.6%.

For `C[C@]12CC[C@H](O)CC1CC[C@@H]1[C@@H]2CC[C@@]2(C)[C@H]1CCC(=O)N2C(=O)c1cccc(C(F)(F)F)c1` (stereo partly drawn) [Compound (1)-11], the mortality at 50 µg/mL in the test with Brevicoryne brassicae was found to be 24.7%; in the test on Myzus persicae, 25%; in the test with wheat aphids, 30.4%; in the test with Aphis citricola, 25.8%. The mortality at 75 µg/mL in the test on Brevicoryne brassicae came to 50.6%; in the test with Myzus persicae, 52.8%; in the test with wheat aphids, 56.5%; in the test with Aphis citricola it was 54.5%.

In the case of `C[C@]12CC[C@H](O)CC1CC[C@@H]1[C@@H]2CC[C@@]2(C)[C@H]1CCC(=O)N2C(=O)c1ccc(C(F)(F)F)cc1` (stereo partly drawn) [Compound (1)-12], the mortality at 50 µg/mL in the test with Brevicoryne brassicae amounted to 29.2%; with Myzus persicae, 30.7%; in the test with wheat aphids, 24.8%; with Aphis citricola, 32.6%. For the same compound, the mortality at 75 µg/mL in the test with Brevicoryne brassicae is 57.5%; in the test on Myzus persicae it was 57.3%; in the test on wheat aphids, 55.7%; with Aphis citricola it was 65.9%.

Turning to `C[C@]12CC[C@H](O)CC1=CC[C@@H]1[C@@H]2CC[C@@]2(C)[C@H]1CCC(=O)N2C(=O)c1ccccc1Br` [Compound (2)-5], the mortality at 50 µg/mL with Tetranychus truncatus (setting [1]) amounted to 43.5%. For the same compound, in the test on Tetranychus truncatus (setting [2]), the mortality at 75 µg/mL is 69.6%.

`COc1ccc(C(=O)N2C(=O)CC[C@H]3[C@@H]4CC=C5C[C@@H](O)CC[C@]5(C)[C@H]4CC[C@@]32C)cc1` [Compound (2)-10]: the mortality at 50 µg/mL in the test on rice planthoppers was determined as 33.2%; with Bemisia tabaci, 48.5%. Besides, the mortality at 75 µg/mL worked out at 36% with rice planthoppers and 69.1% in the test on Bemisia tabaci.

For `C[C@]12CC[C@H](O)CC1=CC[C@@H]1[C@@H]2CC[C@@]2(C)[C@H]1CCC(=O)N2C(=O)c1cccc(C(F)(F)F)c1` [Compound (2)-11], the mortality at 50 µg/mL came out at 42.7% in the test with Brevicoryne brassicae; 35.3% with rice planthoppers; 45.4% in the test on Bemisia tabaci; 40.9% in the test on Myzus persicae; 40% in the test on wheat aphids; 44.9% in the test on Aphis citricola. Moreover, the mortality at 75 µg/mL in the test with Brevicoryne brassicae is 65.5%; with rice planthoppers, 57.8%; in the test with Bemisia tabaci, 58.3%; with Myzus persicae, 66.3%; in the test on wheat aphids, 59.7%; in the test with Aphis citricola, 72.7%.

Take `C[C@]12CC[C@H](O)CC1=CC[C@@H]1[C@@H]2CC[C@@]2(C)[C@H]1CCC(=O)N2C(=O)c1ccc([N+](=O)[O-])cc1` [Compound (2)-13]: in the test with Tetranychus truncatus (setting [1]), the mortality at 50 µg/mL stood at 33.2%. Besides, the mortality at 75 µg/mL with Tetranychus truncatus (setting [2]) worked out at 56.8%.

Consider `O=[N+]([O-])NC1=NCCN1Cc1ccc(Cl)nc1` [Imidacloprid, reference compound], for which, in the test on rice planthoppers, the mortality at 50 µg/mL was found to be 61.2% and the mortality at 75 µg/mL is 82.3%.

Turning to `CC(C)(C)c1ccc(CSc2cnn(C(C)(C)C)c(=O)c2Cl)cc1` [Pyridaben, reference compound], in the test on Tetranychus truncatus, the mortality at 50 µg/mL was found to be 65.3% and the mortality at 75 µg/mL stood at 89.3%.

Consider `CN1COCN(Cc2cnc(Cl)s2)/C1=N\[N+](=O)[O-]` [Thiamethoxam, reference compound], for which, in the test on Bemisia tabaci, the mortality at 50 µg/mL was determined as 59.5% and the mortality at 75 µg/mL was 76.2%.
